Experimental data as given in paper PMC12586182 (Frontiers in Oncology, 2025).

Columns and labels:
Assay in all cases: Kinase panel profiling at 1 µmol/L (mobility shift assay, Carna)
Assay type in all cases: biochemical
Conditions in all cases: 1 µmol/L of BTK inhibitor
ARG = target: T1, ARG (Homo sapiens, UniProt P42684)
T1 construct: purchased Carna Biosciences

PYK2 = target: T2, PYK2 (Homo sapiens, UniProt Q14289)
T2 construct: purchased Carna Biosciences

AKT2 = target: T3, AKT2 (Homo sapiens, UniProt P31751)
T3 construct: purchased Carna Biosciences

BRSK2 = target: T4, BRSK2 (Homo sapiens, UniProt Q8IWQ3)
T4 construct: purchased Carna Biosciences
T4 sequence (Q8IWQ3 1-736): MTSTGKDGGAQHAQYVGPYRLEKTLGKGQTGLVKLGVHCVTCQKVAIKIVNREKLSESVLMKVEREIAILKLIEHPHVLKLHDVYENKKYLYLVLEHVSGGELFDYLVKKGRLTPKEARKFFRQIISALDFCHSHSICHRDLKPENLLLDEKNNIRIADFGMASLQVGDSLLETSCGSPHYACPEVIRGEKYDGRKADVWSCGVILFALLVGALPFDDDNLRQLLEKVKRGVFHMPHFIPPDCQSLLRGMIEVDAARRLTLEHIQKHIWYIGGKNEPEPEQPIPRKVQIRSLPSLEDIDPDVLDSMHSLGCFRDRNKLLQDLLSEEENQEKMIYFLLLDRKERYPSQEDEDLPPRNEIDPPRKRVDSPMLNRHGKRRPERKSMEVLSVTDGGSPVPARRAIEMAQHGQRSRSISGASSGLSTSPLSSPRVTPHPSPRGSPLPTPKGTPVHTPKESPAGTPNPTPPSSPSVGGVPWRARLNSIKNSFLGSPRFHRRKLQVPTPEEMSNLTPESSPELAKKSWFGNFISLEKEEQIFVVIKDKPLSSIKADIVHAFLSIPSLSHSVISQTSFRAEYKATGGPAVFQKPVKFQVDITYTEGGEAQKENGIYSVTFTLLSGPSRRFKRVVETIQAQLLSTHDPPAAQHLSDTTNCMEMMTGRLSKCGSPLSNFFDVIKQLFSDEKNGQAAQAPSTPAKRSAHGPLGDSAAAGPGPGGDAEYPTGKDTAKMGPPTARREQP

HIPK1 = target: T5, HIPK1 (Homo sapiens, UniProt Q86Z02)
T5 construct: purchased Carna Biosciences
T5 sequence (Q86Z02 whole entry): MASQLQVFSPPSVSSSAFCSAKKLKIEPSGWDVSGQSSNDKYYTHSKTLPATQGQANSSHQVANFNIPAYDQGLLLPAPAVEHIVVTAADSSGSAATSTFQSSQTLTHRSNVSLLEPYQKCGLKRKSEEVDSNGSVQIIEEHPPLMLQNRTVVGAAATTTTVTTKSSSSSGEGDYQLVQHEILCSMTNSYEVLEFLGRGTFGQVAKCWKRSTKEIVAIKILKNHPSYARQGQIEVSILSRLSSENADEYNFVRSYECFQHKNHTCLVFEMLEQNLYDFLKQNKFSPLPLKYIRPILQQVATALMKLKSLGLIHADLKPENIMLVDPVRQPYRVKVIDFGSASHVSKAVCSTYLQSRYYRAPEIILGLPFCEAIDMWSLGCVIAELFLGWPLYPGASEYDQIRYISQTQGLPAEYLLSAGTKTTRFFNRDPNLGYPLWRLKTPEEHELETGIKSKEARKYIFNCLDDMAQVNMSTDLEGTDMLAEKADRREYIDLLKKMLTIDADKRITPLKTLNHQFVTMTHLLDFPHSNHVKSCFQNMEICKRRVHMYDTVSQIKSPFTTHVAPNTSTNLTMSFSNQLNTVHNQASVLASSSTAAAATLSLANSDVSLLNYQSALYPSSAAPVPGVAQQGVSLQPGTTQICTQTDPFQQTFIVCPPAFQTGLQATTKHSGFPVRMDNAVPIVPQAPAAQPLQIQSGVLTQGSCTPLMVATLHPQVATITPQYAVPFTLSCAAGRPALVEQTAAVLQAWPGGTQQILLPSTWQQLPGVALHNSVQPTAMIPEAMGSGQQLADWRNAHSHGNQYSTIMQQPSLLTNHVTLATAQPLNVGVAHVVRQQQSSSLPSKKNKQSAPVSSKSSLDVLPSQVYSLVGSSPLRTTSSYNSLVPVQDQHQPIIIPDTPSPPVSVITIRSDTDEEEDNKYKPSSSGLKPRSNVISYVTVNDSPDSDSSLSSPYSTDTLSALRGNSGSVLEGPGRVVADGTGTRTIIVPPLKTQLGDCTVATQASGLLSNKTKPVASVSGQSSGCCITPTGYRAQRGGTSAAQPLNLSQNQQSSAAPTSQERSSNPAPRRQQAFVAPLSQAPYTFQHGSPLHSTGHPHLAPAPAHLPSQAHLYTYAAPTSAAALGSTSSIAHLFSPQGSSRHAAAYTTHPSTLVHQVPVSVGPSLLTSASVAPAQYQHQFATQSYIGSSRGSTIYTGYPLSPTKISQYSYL

NDR1 = target: T6, NDR1 (Homo sapiens, UniProt Q15208)
T6 construct: purchased Carna Biosciences
T6 sequence (Q15208 whole entry): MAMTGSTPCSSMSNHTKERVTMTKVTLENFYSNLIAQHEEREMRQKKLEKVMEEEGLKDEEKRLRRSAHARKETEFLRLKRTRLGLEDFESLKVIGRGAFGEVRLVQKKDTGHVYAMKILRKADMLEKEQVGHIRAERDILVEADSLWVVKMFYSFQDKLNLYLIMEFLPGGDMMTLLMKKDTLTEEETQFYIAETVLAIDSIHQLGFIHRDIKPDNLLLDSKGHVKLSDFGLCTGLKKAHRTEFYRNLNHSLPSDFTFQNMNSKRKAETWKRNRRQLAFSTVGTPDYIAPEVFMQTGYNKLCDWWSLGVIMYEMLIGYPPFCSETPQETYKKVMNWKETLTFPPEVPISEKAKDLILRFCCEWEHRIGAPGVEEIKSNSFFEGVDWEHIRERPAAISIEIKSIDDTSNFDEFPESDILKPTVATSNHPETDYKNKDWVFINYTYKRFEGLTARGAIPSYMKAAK

NEK6 = target: T7, NEK6 (Homo sapiens, UniProt Q9HC98)
T7 construct: purchased Carna Biosciences
T7 sequence (Q9HC98 whole entry): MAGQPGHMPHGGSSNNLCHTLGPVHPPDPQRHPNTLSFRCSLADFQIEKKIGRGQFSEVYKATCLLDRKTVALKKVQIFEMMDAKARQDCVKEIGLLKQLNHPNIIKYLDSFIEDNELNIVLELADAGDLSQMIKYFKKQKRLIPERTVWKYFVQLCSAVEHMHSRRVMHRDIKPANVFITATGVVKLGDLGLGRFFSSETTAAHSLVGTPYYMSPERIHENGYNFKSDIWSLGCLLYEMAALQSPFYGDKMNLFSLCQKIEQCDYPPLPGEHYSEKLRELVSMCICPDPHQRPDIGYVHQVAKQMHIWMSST

NuaK2 = target: T8, NuaK2 (Homo sapiens, UniProt Q9H093)
T8 construct: purchased Carna Biosciences
T8 sequence (Q9H093 1-628): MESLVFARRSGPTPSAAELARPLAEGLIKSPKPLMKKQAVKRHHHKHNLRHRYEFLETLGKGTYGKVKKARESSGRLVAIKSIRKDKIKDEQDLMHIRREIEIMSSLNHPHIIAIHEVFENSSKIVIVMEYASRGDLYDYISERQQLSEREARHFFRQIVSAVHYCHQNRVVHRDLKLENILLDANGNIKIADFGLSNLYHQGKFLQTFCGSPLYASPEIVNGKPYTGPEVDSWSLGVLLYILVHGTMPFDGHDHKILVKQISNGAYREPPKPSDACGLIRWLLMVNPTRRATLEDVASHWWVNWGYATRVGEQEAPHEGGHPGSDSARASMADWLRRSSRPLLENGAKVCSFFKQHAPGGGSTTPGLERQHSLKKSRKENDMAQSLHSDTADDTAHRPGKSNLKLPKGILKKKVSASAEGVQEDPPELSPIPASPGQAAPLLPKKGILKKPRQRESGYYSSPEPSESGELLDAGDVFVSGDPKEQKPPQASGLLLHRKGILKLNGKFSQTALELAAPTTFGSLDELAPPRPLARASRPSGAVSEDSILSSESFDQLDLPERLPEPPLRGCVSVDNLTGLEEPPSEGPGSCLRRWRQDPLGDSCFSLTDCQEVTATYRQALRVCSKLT

p38δ = target: T9, p38δ (Homo sapiens, UniProt O15264)
T9 construct: purchased Carna Biosciences
T9 sequence (O15264 1-365): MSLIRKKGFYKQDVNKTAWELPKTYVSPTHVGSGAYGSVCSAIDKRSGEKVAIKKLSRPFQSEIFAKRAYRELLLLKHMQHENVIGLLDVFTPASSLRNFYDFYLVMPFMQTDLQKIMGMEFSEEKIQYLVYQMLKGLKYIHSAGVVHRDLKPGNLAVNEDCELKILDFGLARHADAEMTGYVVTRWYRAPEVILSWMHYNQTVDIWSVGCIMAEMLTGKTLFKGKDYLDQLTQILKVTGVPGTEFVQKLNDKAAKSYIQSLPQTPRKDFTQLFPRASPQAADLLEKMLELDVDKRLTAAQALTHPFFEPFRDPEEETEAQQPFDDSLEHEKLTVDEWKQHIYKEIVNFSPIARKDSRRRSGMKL

PIM1 = target: T10, PIM1 (Homo sapiens, UniProt P11309)
T10 construct: purchased Carna Biosciences

PKCδ = target: T11, PKCδ (Homo sapiens, UniProt Q05655)
T11 construct: purchased Carna Biosciences
T11 sequence (Q05655 whole entry): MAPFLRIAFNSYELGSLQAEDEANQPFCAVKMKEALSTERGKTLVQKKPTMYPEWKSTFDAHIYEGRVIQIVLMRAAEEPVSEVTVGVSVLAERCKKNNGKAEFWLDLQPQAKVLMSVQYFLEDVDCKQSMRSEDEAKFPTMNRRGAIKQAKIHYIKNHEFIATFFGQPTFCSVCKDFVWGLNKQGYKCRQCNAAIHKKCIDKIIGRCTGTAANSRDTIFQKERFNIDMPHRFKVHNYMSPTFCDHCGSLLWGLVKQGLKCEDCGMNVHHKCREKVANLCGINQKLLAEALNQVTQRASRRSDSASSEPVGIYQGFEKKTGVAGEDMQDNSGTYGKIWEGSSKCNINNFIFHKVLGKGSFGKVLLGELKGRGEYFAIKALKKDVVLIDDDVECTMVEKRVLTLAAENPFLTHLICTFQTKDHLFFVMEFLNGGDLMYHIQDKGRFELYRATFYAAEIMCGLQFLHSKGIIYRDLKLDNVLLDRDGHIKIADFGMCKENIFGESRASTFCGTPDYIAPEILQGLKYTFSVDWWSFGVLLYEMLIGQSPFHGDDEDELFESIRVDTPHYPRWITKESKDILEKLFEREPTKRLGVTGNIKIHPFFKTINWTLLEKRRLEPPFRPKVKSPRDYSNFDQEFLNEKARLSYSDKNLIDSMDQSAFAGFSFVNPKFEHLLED

PKN1 = target: T12, PKN1 (Homo sapiens, UniProt Q16512)
T12 construct: purchased Carna Biosciences

T2 sequence (Q14289 whole entry): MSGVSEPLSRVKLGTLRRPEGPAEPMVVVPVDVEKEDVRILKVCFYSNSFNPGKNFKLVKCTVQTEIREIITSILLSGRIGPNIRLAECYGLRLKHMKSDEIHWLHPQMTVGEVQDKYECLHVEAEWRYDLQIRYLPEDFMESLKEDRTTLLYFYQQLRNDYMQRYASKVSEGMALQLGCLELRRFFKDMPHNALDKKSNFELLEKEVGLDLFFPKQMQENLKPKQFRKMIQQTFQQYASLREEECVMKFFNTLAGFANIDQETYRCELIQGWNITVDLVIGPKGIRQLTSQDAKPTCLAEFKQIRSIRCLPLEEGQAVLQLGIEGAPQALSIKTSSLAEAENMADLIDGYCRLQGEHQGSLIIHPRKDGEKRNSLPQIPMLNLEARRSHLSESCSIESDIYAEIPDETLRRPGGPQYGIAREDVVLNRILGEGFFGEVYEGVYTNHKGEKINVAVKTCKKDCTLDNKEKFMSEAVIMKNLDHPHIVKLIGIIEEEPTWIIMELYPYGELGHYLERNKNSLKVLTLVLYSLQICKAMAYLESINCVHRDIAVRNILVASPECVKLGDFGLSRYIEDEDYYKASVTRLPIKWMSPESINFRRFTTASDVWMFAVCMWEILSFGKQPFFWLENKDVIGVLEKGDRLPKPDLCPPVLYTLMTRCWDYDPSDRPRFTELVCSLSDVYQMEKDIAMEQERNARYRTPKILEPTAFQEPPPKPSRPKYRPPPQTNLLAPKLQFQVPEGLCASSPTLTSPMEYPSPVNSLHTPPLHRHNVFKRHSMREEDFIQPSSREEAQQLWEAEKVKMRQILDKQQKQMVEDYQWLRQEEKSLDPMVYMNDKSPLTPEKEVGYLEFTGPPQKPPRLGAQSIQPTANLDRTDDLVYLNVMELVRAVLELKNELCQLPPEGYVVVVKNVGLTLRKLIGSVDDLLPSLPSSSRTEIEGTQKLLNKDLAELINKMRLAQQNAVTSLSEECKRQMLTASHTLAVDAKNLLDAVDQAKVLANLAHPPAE
T1 sequence (P42684 whole entry): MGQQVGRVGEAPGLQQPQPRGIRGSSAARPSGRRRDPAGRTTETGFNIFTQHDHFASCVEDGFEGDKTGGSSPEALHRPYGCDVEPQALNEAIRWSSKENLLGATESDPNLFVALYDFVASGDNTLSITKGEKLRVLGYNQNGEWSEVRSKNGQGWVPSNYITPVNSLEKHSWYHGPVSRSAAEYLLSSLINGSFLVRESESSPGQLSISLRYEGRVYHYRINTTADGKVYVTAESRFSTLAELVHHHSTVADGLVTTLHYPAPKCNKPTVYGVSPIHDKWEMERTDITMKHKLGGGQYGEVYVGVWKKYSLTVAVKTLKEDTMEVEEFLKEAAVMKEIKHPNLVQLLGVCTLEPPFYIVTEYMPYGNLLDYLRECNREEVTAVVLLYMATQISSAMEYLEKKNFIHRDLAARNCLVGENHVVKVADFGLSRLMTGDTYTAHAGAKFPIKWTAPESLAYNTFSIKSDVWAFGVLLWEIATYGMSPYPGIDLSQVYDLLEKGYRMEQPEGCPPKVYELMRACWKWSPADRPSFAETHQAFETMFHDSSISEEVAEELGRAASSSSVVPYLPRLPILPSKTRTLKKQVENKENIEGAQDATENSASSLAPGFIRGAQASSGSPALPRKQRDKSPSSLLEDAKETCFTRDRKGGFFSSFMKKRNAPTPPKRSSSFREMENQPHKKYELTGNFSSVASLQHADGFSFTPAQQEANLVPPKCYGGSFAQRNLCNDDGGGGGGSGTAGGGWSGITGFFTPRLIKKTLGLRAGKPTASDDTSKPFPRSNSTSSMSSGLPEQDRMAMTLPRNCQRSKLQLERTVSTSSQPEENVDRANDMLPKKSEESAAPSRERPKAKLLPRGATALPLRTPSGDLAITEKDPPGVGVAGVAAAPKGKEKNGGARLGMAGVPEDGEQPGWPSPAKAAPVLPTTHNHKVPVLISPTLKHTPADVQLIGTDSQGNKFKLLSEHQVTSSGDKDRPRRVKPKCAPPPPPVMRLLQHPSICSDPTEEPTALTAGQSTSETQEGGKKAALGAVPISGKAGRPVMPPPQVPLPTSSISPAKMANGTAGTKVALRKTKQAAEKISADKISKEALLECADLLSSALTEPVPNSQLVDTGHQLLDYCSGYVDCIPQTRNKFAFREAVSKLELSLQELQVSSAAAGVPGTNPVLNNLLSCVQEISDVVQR

CC#CC(=O)N1CCC[C@H]1c1nc(-c2ccc(C(=O)Nc3ccccn3)cc2)c2c(N)nccn12 [acalabrutinib]
Percentage inhibition of kinase enzyme activity (ARG): 3.53% | Percentage inhibition of kinase enzyme activity (PYK2): -3.55% | Percentage inhibition of kinase enzyme activity (AKT2): -2.69% | Percentage inhibition of kinase enzyme activity (BRSK2): -10.15% | Percentage inhibition of kinase enzyme activity (HIPK1): -14.56% | Percentage inhibition of kinase enzyme activity (NDR1): -6.32% | Percentage inhibition of kinase enzyme activity (NEK6): -5.54% | Percentage inhibition of kinase enzyme activity (NuaK2): 3.11% | Percentage inhibition of kinase enzyme activity (p38δ): -1.74% | Percentage inhibition of kinase enzyme activity (PIM1): -4.28% | Percentage inhibition of kinase enzyme activity (PKCδ): -8.64% | Percentage inhibition of kinase enzyme activity (PKN1): 11.29%

C=CC(=O)N1CCC[C@@H](n2nc(-c3ccc(Oc4ccccc4)cc3)c3c(N)ncnc32)C1 [ibrutinib]
Percentage inhibition of kinase enzyme activity (ARG): 6.86% | Percentage inhibition of kinase enzyme activity (PYK2): 3.37% | Percentage inhibition of kinase enzyme activity (AKT2): -3.12% | Percentage inhibition of kinase enzyme activity (BRSK2): 15.84% | Percentage inhibition of kinase enzyme activity (HIPK1): 4.26% | Percentage inhibition of kinase enzyme activity (NDR1): 2.65% | Percentage inhibition of kinase enzyme activity (NEK6): 0.77% | Percentage inhibition of kinase enzyme activity (NuaK2): 6.37% | Percentage inhibition of kinase enzyme activity (p38δ): -3.68% | Percentage inhibition of kinase enzyme activity (PKCδ): 0.52% | Percentage inhibition of kinase enzyme activity (PKN1): 8.58%

O=C(c1ccc(Oc2ccccc2)cc1Cl)c1c[nH]c2ncnc(N[C@@H]3CC[C@@H](CO)OC3)c12 [nemtabrutinib]
Percentage inhibition of kinase enzyme activity (ARG): 62.68% | Percentage inhibition of kinase enzyme activity (PYK2): 100.08% | Percentage inhibition of kinase enzyme activity (AKT2): 4.40% | Percentage inhibition of kinase enzyme activity (BRSK2): 15.84% | Percentage inhibition of kinase enzyme activity (HIPK1): 2.16% | Percentage inhibition of kinase enzyme activity (NDR1): 3.34% | Percentage inhibition of kinase enzyme activity (NEK6): -0.80% | Percentage inhibition of kinase enzyme activity (NuaK2): 24.70% | Percentage inhibition of kinase enzyme activity (p38δ): -5.79% | Percentage inhibition of kinase enzyme activity (PIM1): -15.07% | Percentage inhibition of kinase enzyme activity (PKCδ): 6.96% | Percentage inhibition of kinase enzyme activity (PKN1): 5.57%

COc1ccc(F)cc1C(=O)NCc1ccc(-c2nn([C@@H](C)C(F)(F)F)c(N)c2C(N)=O)cc1 [pirtobrutinib]
Percentage inhibition of kinase enzyme activity (ARG): -0.47% | Percentage inhibition of kinase enzyme activity (PYK2): 7.26% | Percentage inhibition of kinase enzyme activity (AKT2): -4.63% | Percentage inhibition of kinase enzyme activity (BRSK2): 7.17% | Percentage inhibition of kinase enzyme activity (HIPK1): 2.97% | Percentage inhibition of kinase enzyme activity (NDR1): 1.20% | Percentage inhibition of kinase enzyme activity (NEK6): -2.92% | Percentage inhibition of kinase enzyme activity (NuaK2): -0.23% | Percentage inhibition of kinase enzyme activity (p38δ): -1.92% | Percentage inhibition of kinase enzyme activity (PIM1): 3.95% | Percentage inhibition of kinase enzyme activity (PKCδ): -3.98% | Percentage inhibition of kinase enzyme activity (PKN1): 15.81%

C=CC(=O)N1CCC([C@@H]2CCNc3c(C(N)=O)c(-c4ccc(Oc5ccccc5)cc4)nn32)CC1 [zanubrutinib]
Percentage inhibition of kinase enzyme activity (PYK2): 16.35%
